Test results: US7994279B2, “Altered peptide ligands of GAD65” (The University of Toledo, priority 2006, dated 2011)

Key:
HLA.A2 = assay: Binding of GAD65 546-554 fragments to human MHC class I
Description: Treatments which reduce GAD65 response can ameliorate Type 1 diabetes in NOD mice (spontaneous responses in NOD and NOD.HLA.A2 mice; the GAD65 546-554 fragments bind Kd and HLA.A2). Unlike the GAD65 molecule, the APL compositions can target a specific set of T cells and reduce the risk of accidental activation of pathogenic T cells.
The mouse (Kd) and human (HLA-A2) are associated with increased risk of Type 1 diabetes.

CTL clones = assay: IFN release by CTL clones (FIG. 7, Table I); assay type: cell-based; design: Percent Reduction of IFN release: concentration or dose not given beside the values
CTL clone 14.86 = assay: THF release by CTL clone 14.86 (FIG. 8, Table 2); assay type: cell-based; settings: for Percent Reduction of THF: clone 14.86
Description: ID No.:11] decreases THF of CTL clone 14.86.

| Substance | binding to HLA.A2 (HLA.A2) | Percent Reduction of IFN release (CTL clones; clone 14.69, A375) [%] | Percent Reduction of IFN release (CTL clones; clone 14.69, B7) [%] | Percent Reduction of IFN release (CTL clones; clone 14.81, A375) [%] | Percent Reduction of IFN release (CTL clones; clone 14.81, B7) [%] | Percent Reduction of IFN release (CTL clones; clone 14.86, A375) [%] | Percent Reduction of IFN release (CTL clones; clone 14.86, B7) [%] | IFN release (effect in words) (CTL clones; various CLT clones) | THF of CTL clone (effect in words) (CTL clone 14.86; CTL clone 14.86) | Percent Reduction of THF (CTL clone 14.86; A375) [%] | Percent Reduction of THF (CTL clone 14.86; B7) [%] |
| --- | --- | --- | --- | --- | --- | --- | --- | --- | --- | --- | --- |
| GAD65 546-554: natural 546-554 fragment of glutamic acid decarboxylase GAD65; probably SEQ.ID No. 2 (SYQPLGDKV) | bind |  |  |  |  |  |  |  |  |  |  |
| S-Y-Q-P-L-G-D-K-A (SYQPLGDKA) [APL-70] |  | 41 | 27 | 31 | 23 | 16 | 17 | decreases IFN release | decreases THF | 37 | 34 |
